Assay results from PubChem BioAssay (NCI).
Several values for one entry are separate records, joined by “and”; a condition that tells them apart may be missing. Equal values may be shown once.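 96-well plates; 48 h exposure; 5 concentrations. Endpoints by linear interpolation between flanking doses. Not reached: highest tested concentration assigned. GI50 = concentration required for 50% inhibition of growth. The concentration for full growth arrest is given as TGI.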

Tests used:
Experiment in all cases: NCI-60 cell line screen, 48 h
UACC-257 melanoma = system: UACC-257 melanoma
SK-OV-3 ovarian = system: SK-OV-3 ovarian
SR leukemia = system: SR leukemia
SK-MEL-2 melanoma = system: SK-MEL-2 melanoma
SK-MEL-5 melanoma = system: SK-MEL-5 melanoma
UACC-62 melanoma = system: UACC-62 melanoma
MDA-MB-231 breast = system: MDA-MB-231 breast
OVCAR-3 ovarian = system: OVCAR-3 ovarian
EKVX NSCLC = system: EKVX NSCLC
ACHN renal = system: ACHN renal

For `COc1cc([C@@H]2c3cc4c(cc3[C@@H](NCCNCCO)[C@H]3COC(=O)[C@H]23)OCO4)cc(OC)c1O`, which TGI (UACC-257 melanoma) is on record?
The TGI was > 30.5 µM and 39.9 µM.

And the TGI (SK-OV-3 ovarian)?
Its TGI is 12.4 µM and 8.25 µM.

What about the GI50 (SR leukemia) of the same compound?
Its GI50 is 0.303 µM.

What about the TGI (SK-MEL-2 melanoma) of the same compound?
Its TGI is > 26.9 µM and 4.89 µM.

And the TGI (SK-MEL-5 melanoma)?
The TGI was 5.14 µM and 6.05 µM.

What about the TGI (UACC-62 melanoma) of the same compound?
The TGI was 5.34 µM and 3.61 µM.

And the TGI (MDA-MB-231 breast)?
Its TGI is 21.6 µM.

And the GI50 (OVCAR-3 ovarian)?
Its GI50 is 7.28 µM and 2.31 µM.

And the TGI (OVCAR-3 ovarian)?
The TGI was > 66.9 µM and 11.1 µM.

What about the GI50 (EKVX NSCLC) of the same compound?
The GI50 was 5.36 µM and 13 µM.

And the TGI (EKVX NSCLC)?
The TGI was over 100 µM.

What about the GI50 (ACHN renal) of the same compound?
The GI50 was 0.856 µM and 2.43 µM.

And the TGI (ACHN renal)?
The TGI was 8.68 µM and 21.2 µM.

With `CC1(c2ccc(Cl)cc2)CC(c2ccc(Cl)cc2)=C(C#N)C(=C(C#N)C#N)N1` (stereo not drawn) as the compound, how does the TGI (UACC-257 melanoma) read?
Its TGI is 37.1 µM.

And the TGI (SK-OV-3 ovarian)?
The TGI was 31.2 µM.

And the TGI (SR leukemia)?
Its TGI is over 100 µM.

And the TGI (SK-MEL-2 melanoma)?
Its TGI is 63.4 µM.

And the TGI (SK-MEL-5 melanoma)?
The TGI was 27.2 µM.

And the TGI (UACC-62 melanoma)?
The TGI was 33.5 µM.

And the TGI (MDA-MB-231 breast)?
Its TGI is 55.8 µM.

What about the TGI (OVCAR-3 ovarian) of the same compound?
The TGI was 24.3 µM.

What about the TGI (EKVX NSCLC) of the same compound?
Its TGI is 35.6 µM.

And the TGI (ACHN renal)?
The TGI was 28 µM.

Which results are given for `CC(=O)Nc1ccc(CNc2cc(=O)[nH]c(=O)[nH]2)cc1`?
TGI (UACC-257 melanoma): > 100 µM; TGI (SK-OV-3 ovarian): > 100 µM; TGI (SR leukemia): > 100 µM; TGI (SK-MEL-2 melanoma): > 100 µM; TGI (SK-MEL-5 melanoma): > 100 µM; TGI (UACC-62 melanoma): > 100 µM; TGI (MDA-MB-231 breast): > 100 µM; TGI (OVCAR-3 ovarian): > 100 µM; TGI (EKVX NSCLC): > 100 µM; TGI (ACHN renal): > 100 µM

`NC1C/C(=N\O)c2c(I)sc(I)c21` (stereo not drawn) was tested. Which TGI (UACC-257 melanoma) did it give?
Its TGI is 31.8 µM.

And the TGI (SK-OV-3 ovarian)?
Its TGI is 30.2 µM.

And the TGI (SR leukemia)?
Its TGI is over 100 µM.

What about the TGI (SK-MEL-2 melanoma) of the same compound?
The TGI was 35.2 µM.

What about the TGI (SK-MEL-5 melanoma) of the same compound?
The TGI was 28.4 µM.

And the TGI (UACC-62 melanoma)?
The TGI was 37.1 µM.

And the TGI (MDA-MB-231 breast)?
The TGI was 39.3 µM.

What about the TGI (OVCAR-3 ovarian) of the same compound?
The TGI was 30.2 µM.

What about the TGI (EKVX NSCLC) of the same compound?
The TGI was 40.4 µM.

And the TGI (ACHN renal)?
Its TGI is 33.5 µM.

What does the source list for `O=C(c1cc(Cl)cc(Cl)c1)N(C(=S)OC12CC3CC(CC(C3)C1)C2)c1ccccc1`?
TGI (UACC-257 melanoma): > 100 µM; TGI (SK-OV-3 ovarian): > 100 µM; TGI (SR leukemia): > 100 µM; TGI (SK-MEL-2 melanoma): 41.6 µM; TGI (SK-MEL-5 melanoma): > 100 µM; TGI (UACC-62 melanoma): > 100 µM; TGI (MDA-MB-231 breast): > 100 µM; TGI (OVCAR-3 ovarian): > 100 µM; TGI (EKVX NSCLC): 69.1 µM; TGI (ACHN renal): > 100 µM

How did the TGI (UACC-257 melanoma) turn out when `CC(C)(C)c1ccc(CN2CCN(C(c3ccccc3)c3ccc(Cl)cc3)CC2)cc1` (stereo not drawn) was run?
The TGI was over 100 µM.

And the TGI (SK-OV-3 ovarian)?
Its TGI is over 100 µM.

What about the TGI (SR leukemia) of the same compound?
Its TGI is over 100 µM.

What about the TGI (SK-MEL-2 melanoma) of the same compound?
The TGI was over 100 µM.

And the TGI (SK-MEL-5 melanoma)?
The TGI was 73.1 µM.

What about the TGI (UACC-62 melanoma) of the same compound?
The TGI was over 100 µM.

And the TGI (MDA-MB-231 breast)?
Its TGI is over 100 µM.

And the TGI (OVCAR-3 ovarian)?
Its TGI is over 100 µM.

What about the TGI (EKVX NSCLC) of the same compound?
Its TGI is over 100 µM.

And the TGI (ACHN renal)?
Its TGI is over 100 µM.

What does the source list for `O=C(Cn1nc(Br)c(Br)c1Br)c1ccccc1`?
TGI (UACC-257 melanoma): 63.5 µM; TGI (SK-OV-3 ovarian): 95.2 µM; TGI (SR leukemia): 25.9 µM; TGI (SK-MEL-2 melanoma): 56.7 µM; TGI (SK-MEL-5 melanoma): 34.5 µM; TGI (UACC-62 melanoma): 56.9 µM; TGI (MDA-MB-231 breast): 84.5 µM; TGI (OVCAR-3 ovarian): > 100 µM; TGI (EKVX NSCLC): > 100 µM; TGI (ACHN renal): 76.2 µM

With `COC(=O)NCCc1[nH]nc2c1C(=O)C=C(Nc1ccccc1)C2=O` as the compound, how does the TGI (UACC-257 melanoma) read?
The TGI was 32.3 µM.

What about the TGI (SK-OV-3 ovarian) of the same compound?
Its TGI is over 100 µM.

And the TGI (SR leukemia)?
Its TGI is 65.2 µM.

What about the TGI (SK-MEL-2 melanoma) of the same compound?
The TGI was 99.4 µM.

And the TGI (SK-MEL-5 melanoma)?
Its TGI is 32.2 µM.

And the TGI (UACC-62 melanoma)?
The TGI was 34.8 µM.

What about the TGI (MDA-MB-231 breast) of the same compound?
Its TGI is 87.7 µM.

What about the TGI (OVCAR-3 ovarian) of the same compound?
The TGI was over 100 µM.

What about the TGI (EKVX NSCLC) of the same compound?
The TGI was over 100 µM.

What about the TGI (ACHN renal) of the same compound?
Its TGI is over 100 µM.

With `CCC1CC2CN3CCc4c([nH]c5c(-c6c(OC)ccc7c8c([nH]c67)[C@]6(C(=O)OC)CC7CC(CC)C6N(CC8)C7)c(O)ccc45)[C@](C(=O)OC)(C2)C13` (stereo partly drawn) as the compound, how does the TGI (UACC-257 melanoma) read?
Its TGI is 47.2 µM.

And the TGI (SK-OV-3 ovarian)?
The TGI was 68 µM.

And the TGI (SR leukemia)?
Its TGI is 45.4 µM.

And the TGI (SK-MEL-2 melanoma)?
Its TGI is 47.2 µM.

What about the TGI (SK-MEL-5 melanoma) of the same compound?
The TGI was 27.4 µM.

What about the TGI (UACC-62 melanoma) of the same compound?
Its TGI is 29.6 µM.

What about the TGI (MDA-MB-231 breast) of the same compound?
Its TGI is 47.1 µM.

What about the TGI (OVCAR-3 ovarian) of the same compound?
The TGI was 30.9 µM.

What about the TGI (EKVX NSCLC) of the same compound?
The TGI was 39.7 µM.

And the TGI (ACHN renal)?
The TGI was 64 µM.

How did the TGI (UACC-257 melanoma) turn out when `CC(=O)O[C@H]1C[C@]2(C)C(CCC3O[C@@]32C)[C@@]2(CC(c3ccoc3)OC2O)[C@@H]1C` (stereo partly drawn) was run?
Its TGI is over 100 µM.

And the TGI (SK-OV-3 ovarian)?
Its TGI is over 100 µM.

What about the TGI (SR leukemia) of the same compound?
Its TGI is over 100 µM.

What about the TGI (SK-MEL-2 melanoma) of the same compound?
Its TGI is over 100 µM.

What about the TGI (SK-MEL-5 melanoma) of the same compound?
The TGI was over 100 µM.

And the TGI (UACC-62 melanoma)?
The TGI was over 100 µM.

And the TGI (MDA-MB-231 breast)?
Its TGI is over 100 µM.

What about the TGI (OVCAR-3 ovarian) of the same compound?
Its TGI is over 100 µM.

And the TGI (EKVX NSCLC)?
Its TGI is over 100 µM.

What about the TGI (ACHN renal) of the same compound?
The TGI was over 100 µM.

Which TGI (UACC-257 melanoma) does the source give for `Cc1cc(N(CCC#N)CCC#N)ccc1/C(N=Nc1cccc([N+](=O)[O-])c1)=N/NC(=O)c1cc(Cl)ccc1O` here?
Its TGI is 94.1 µM.

And the TGI (SK-OV-3 ovarian)?
The TGI was over 100 µM.

What about the TGI (SR leukemia) of the same compound?
The TGI was 45 µM.

And the TGI (SK-MEL-2 melanoma)?
The TGI was 63.3 µM.

And the TGI (SK-MEL-5 melanoma)?
The TGI was 39.3 µM.

And the TGI (UACC-62 melanoma)?
The TGI was 40.2 µM.

And the TGI (MDA-MB-231 breast)?
The TGI was 53.5 µM.

And the TGI (OVCAR-3 ovarian)?
The TGI was 59.5 µM.

What about the TGI (EKVX NSCLC) of the same compound?
Its TGI is 93.6 µM.

And the TGI (ACHN renal)?
Its TGI is over 100 µM.

What does the source list for `CCCN1C(=O)CCC2=C1CCc1c2ccc(Cl)c1Cl`?
TGI (UACC-257 melanoma): > 100 µM; TGI (SK-OV-3 ovarian): 69.1 µM; TGI (SR leukemia): > 100 µM; TGI (SK-MEL-2 melanoma): 41.6 µM; TGI (SK-MEL-5 melanoma): 60.4 µM; TGI (UACC-62 melanoma): 5.44 µM; TGI (MDA-MB-231 breast): 48.7 µM; TGI (OVCAR-3 ovarian): 86.7 µM; TGI (EKVX NSCLC): > 100 µM; TGI (ACHN renal): > 100 µM

Which TGI (UACC-257 melanoma) does the source give for `C1COC(NC(C2CC2)C2CC2)=N1` here?
Its TGI is over 100 µM.

And the TGI (SK-OV-3 ovarian)?
The TGI was over 100 µM.

What about the TGI (SR leukemia) of the same compound?
The TGI was over 100 µM.

What about the TGI (SK-MEL-2 melanoma) of the same compound?
The TGI was over 100 µM.

And the TGI (SK-MEL-5 melanoma)?
Its TGI is over 100 µM.

And the TGI (UACC-62 melanoma)?
The TGI was over 100 µM.

And the TGI (MDA-MB-231 breast)?
Its TGI is over 100 µM.

And the TGI (OVCAR-3 ovarian)?
The TGI was over 100 µM.

And the TGI (EKVX NSCLC)?
Its TGI is over 100 µM.

What about the TGI (ACHN renal) of the same compound?
Its TGI is over 100 µM.

For `COC(=O)CC1(CNC(=O)OCc2ccccc2)OCCO1`, which TGI (UACC-257 melanoma) is on record?
The TGI was over 100 µM.

And the TGI (SK-OV-3 ovarian)?
The TGI was over 100 µM.

And the TGI (SR leukemia)?
Its TGI is over 100 µM.

And the TGI (SK-MEL-2 melanoma)?
Its TGI is over 100 µM.

And the TGI (SK-MEL-5 melanoma)?
The TGI was over 100 µM.

What about the TGI (UACC-62 melanoma) of the same compound?
Its TGI is over 100 µM.

What about the TGI (MDA-MB-231 breast) of the same compound?
The TGI was over 100 µM.

And the TGI (OVCAR-3 ovarian)?
Its TGI is over 100 µM.

And the TGI (EKVX NSCLC)?
The TGI was over 100 µM.

What about the TGI (ACHN renal) of the same compound?
Its TGI is over 100 µM.
